The values below come from PubChem BioAssay AID256 (DTP/NCI, 2004).

Where “and” joins values, the source holds several entries; their conditions need not be identical. Equal entries are not always repeated. Toxic doses and inconclusive results are not listed.

The subject of the assay is CD2F1 mice, L1210 leukemia ip, survival T/C. Briefly: NCI In Vivo Anticancer Drug Screen. Data for tumor model L1210 Leukemia (intraperitoneal) in CD2F1 (CDF1) mice. The conditions noted are these: higher = longer survival. The method, boiled down: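 Tumor-bearing mice (transplanted tumor) were split into treated and vehicle control groups, and the measured endpoint of each treated group was divided by that of its vehicle controls.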

The mark [1] stands for this setting: endpoint: mean survival time, dose: 50.0 mg/kg/injection, schedule: Q01DX009 (ip), vehicle: Klucel (hydroxypropylcellulose) (HPC).
Setting [2] is: endpoint: mean survival time, dose: 100.0 mg/kg/injection, schedule: Q01DX009 (ip), vehicle: Klucel (hydroxypropylcellulose) (HPC).
The mark [3] stands for this setting: endpoint: mean survival time, dose: 200.0 mg/kg/injection, schedule: Q01DX009 (ip), vehicle: Klucel (hydroxypropylcellulose) (HPC).
The mark [4] stands for this setting: endpoint: mean survival time, dose: 100.0 mg/kg/injection, schedule: Q01DX001 (ip), vehicle: saline with Tween-80.
Setting [5] is: endpoint: mean survival time, dose: 100.0 mg/kg/injection, schedule: Q01DX009 (ip), vehicle: saline with Tween-80.
[6] abbreviates: endpoint: mean survival time, dose: 200.0 mg/kg/injection, schedule: Q01DX001 (ip), vehicle: saline with Tween-80.
The mark [7] stands for this setting: endpoint: mean survival time, dose: 200.0 mg/kg/injection, schedule: Q01DX009 (ip), vehicle: saline with Tween-80.
[8] abbreviates: endpoint: mean survival time, dose: 400.0 mg/kg/injection, schedule: Q01DX009 (ip), vehicle: saline with Tween-80.
The mark [9] stands for this setting: endpoint: mean survival time, dose: 100.0 mg/kg/injection, schedule: Q04DX003 (ip), vehicle: saline with Tween-80.
Where [10] appears, read: endpoint: mean survival time, dose: 200.0 mg/kg/injection, schedule: Q04DX003 (ip), vehicle: saline with Tween-80.
Where [11] appears, read: endpoint: mean survival time, dose: 400.0 mg/kg/injection, schedule: Q04DX003 (ip), vehicle: saline with Tween-80.
The mark [12] stands for this setting: endpoint: mean survival time, dose: 25.0 mg/kg/injection, schedule: Q04DX003 (ip), vehicle: saline with Tween-80.
The mark [13] stands for this setting: endpoint: mean survival time, dose: 100.0 mg/kg/injection, schedule: Q04DX002 (ip), vehicle: saline with Tween-80.
Where [14] appears, read: endpoint: mean survival time, dose: 200.0 mg/kg/injection, schedule: Q04DX002 (ip), vehicle: saline with Tween-80.
Setting [15] is: endpoint: mean survival time, dose: 400.0 mg/kg/injection, schedule: Q04DX002 (ip), vehicle: saline with Tween-80.
The mark [16] stands for this setting: endpoint: mean survival time, dose: 50.0 mg/kg/injection, schedule: Q04DX003 (ip), vehicle: saline with Tween-80.
Where [17] appears, read: endpoint: mean survival time, dose: 50.0 mg/kg/injection, schedule: Q01DX009 (ip), vehicle: saline with Tween-80.

For `Fc1ccc(NC(=S)SCc2ccc(Cl)c(Cl)c2)cc1F`, the T/C runs as follows: (endpoint: mean survival time, dose: 12.5 mg/kg/injection, schedule: Q01DX009 (ip), vehicle: saline) 98 % of control; (endpoint: mean survival time, dose: 12.5 mg/kg/injection, schedule: Q01DX009 (ip), vehicle: suspension in saline) 98 % of control; (endpoint: mean survival time, dose: 25.0 mg/kg/injection, schedule: Q01DX009 (ip), vehicle: saline) 101 % of control; (endpoint: mean survival time, dose: 25.0 mg/kg/injection, schedule: Q01DX009 (ip), vehicle: suspension in saline) 108 % of control; under setting [1], 112 % of control; (endpoint: mean survival time, dose: 50.0 mg/kg/injection, schedule: Q01DX009 (ip), vehicle: saline) 98 % of control. The T/C is, setting by setting: (endpoint: mean survival time, dose: 50.0 mg/kg/injection, schedule: Q01DX009 (ip), vehicle: suspension in saline) 103 % of control; under setting [2], 107 % of control; (endpoint: mean survival time, dose: 100.0 mg/kg/injection, schedule: Q01DX009 (ip), vehicle: saline) 95 % of control; (endpoint: mean survival time, dose: 100.0 mg/kg/injection, schedule: Q01DX009 (ip), vehicle: suspension in saline) 104 % of control; under setting [3], 91 % of control.

As for `CC(C)(SSC(C)(C)C(N)C(=O)O)C(N)C(=O)O` (configuration not stated), the T/C by setting is: under setting [4], 108 % of control; under setting [5], 94 % of control; under setting [6], 101 % of control; under setting [7], 93 % of control; (endpoint: mean survival time, dose: 400.0 mg/kg/injection, schedule: Q01DX001 (ip), vehicle: saline with Tween-80) 109 % of control; under setting [8], 90 % of control.

For `COCC(=O)C(C(C)=O)C(c1ccncc1)C(C(C)=O)C(=O)COC` (configuration not stated), the T/C under setting [9] was 96 % of control, the T/C under setting [10] is 98 % of control and the T/C under setting [11] was 102 % of control.

Consider `CC1(C)OC2C(CO)OC(NC3=C(C#N)CCCC3)C2O1` (configuration not stated), for which the T/C runs as follows: (endpoint: mean survival time, dose: 12.5 mg/kg/injection, schedule: Q01DX005 (ip), vehicle: other) 103 % of control; (endpoint: mean survival time, dose: 25.0 mg/kg/injection, schedule: Q01DX005 (ip), vehicle: other) 105 % of control; (endpoint: mean survival time, dose: 50.0 mg/kg/injection, schedule: Q01DX005 (ip), vehicle: other) 103 % of control; (endpoint: mean survival time, dose: 100.0 mg/kg/injection, schedule: Q01DX005 (ip), vehicle: other) 97 % of control; (endpoint: mean survival time, dose: 200.0 mg/kg/injection, schedule: Q01DX005 (ip), vehicle: other) 103 % of control.

Consider `Cc1cc(OCC(=O)O)ccc1Cl`, for which the T/C under setting [1] is 100 % of control, the T/C under setting [2] is 104 % of control and the T/C under setting [3] is 104 % of control.

`O=S(=O)(O)O.[NH-]C(c1ccccc1)C([NH-])c1ccccc1.[Pt+2]` (configuration not stated): the T/C (endpoint: mean survival time, dose: 12.5 mg/kg/injection, schedule: Q04DX003 (ip), vehicle: saline with Tween-80) was 192 % of control; the T/C under setting [12] was 234 % of control and 197 % of control.

As for `NC(=S)c1ncn(C2OC(COC=O)C(OC=O)C2OC=O)c1NC=O` (configuration not stated), the T/C runs as follows: (endpoint: mean survival time, dose: 50.0 mg/kg/injection, schedule: Q04DX002 (ip), vehicle: Klucel (hydroxypropylcellulose) (HPC)) 121 % of control; under setting [2], 151 % of control; under setting [13], 166 % of control; under setting [3], 117 % of control; under setting [14], 158 % of control; (endpoint: mean survival time, dose: 400.0 mg/kg/injection, schedule: Q04DX002 (ip), vehicle: Klucel (hydroxypropylcellulose) (HPC)) 159 % of control. Also, the T/C is 154 % of control under setting [15]; 111 % of control (endpoint: median survival time, dose: 12.5 mg/kg/injection, schedule: Q01DX009 (ip), vehicle: Klucel (hydroxypropylcellulose) (HPC)); 122 % of control (endpoint: median survival time, dose: 25.0 mg/kg/injection, schedule: Q01DX009 (ip), vehicle: Klucel (hydroxypropylcellulose) (HPC)); 154 % of control and 166 % of control (endpoint: median survival time, dose: 200.0 mg/kg/injection, schedule: Q01DX009 (ip), vehicle: Klucel (hydroxypropylcellulose) (HPC)).

For the compound `O=C1c2ccccc2C(=O)N1CCCCCBr`, the T/C under setting [5] was 96 % of control; the T/C under setting [9] was 103 % of control; the T/C under setting [7] was 96 % of control; the T/C under setting [10] was 91 % of control; the T/C under setting [8] is 94 % of control; the T/C under setting [11] is 100 % of control.

For the compound `[N-]=[N+]=NC1CCOC(n2cnc3c(N)ncnc32)C1O` (configuration not stated), the T/C is 102 % of control (endpoint: median survival time, dose: 25.0 mg/kg/injection, schedule: Q01DX005 (ip), vehicle: Klucel (hydroxypropylcellulose) (HPC)); 101 % of control (endpoint: median survival time, dose: 25.0 mg/kg/injection, schedule: Q01DX005 (ip), vehicle: Klucel + Tween-80); 100 % of control (endpoint: median survival time, dose: 50.0 mg/kg/injection, schedule: Q01DX005 (ip), vehicle: Klucel (hydroxypropylcellulose) (HPC)); 101 % of control (endpoint: median survival time, dose: 50.0 mg/kg/injection, schedule: Q01DX005 (ip), vehicle: Klucel + Tween-80); 108 % of control (endpoint: median survival time, dose: 100.0 mg/kg/injection, schedule: Q01DX005 (ip), vehicle: Klucel (hydroxypropylcellulose) (HPC)); 102 % of control (endpoint: median survival time, dose: 100.0 mg/kg/injection, schedule: Q01DX005 (ip), vehicle: Klucel + Tween-80). For the same compound, the T/C (endpoint: median survival time, dose: 200.0 mg/kg/injection, schedule: Q01DX005 (ip), vehicle: Klucel (hydroxypropylcellulose) (HPC)) was 102 % of control and the T/C (endpoint: median survival time, dose: 200.0 mg/kg/injection, schedule: Q01DX005 (ip), vehicle: Klucel + Tween-80) is 102 % of control.

Consider `CCOCCNc1ccc([N+](=O)[O-])cc1[N+](=O)[O-]`, for which the T/C under setting [13] was 91 % of control, the T/C under setting [14] was 91 % of control and the T/C under setting [15] is 98 % of control.

For the compound `COc1ccc(CN(C)CCO)cc1OC`, the T/C by setting is: (endpoint: median survival time, dose: 25.0 mg/kg/injection, schedule: Q04DX003 (ip), vehicle: saline) 100 % of control; (endpoint: median survival time, dose: 50.0 mg/kg/injection, schedule: Q04DX003 (ip), vehicle: saline) 100 % of control; (endpoint: median survival time, dose: 100.0 mg/kg/injection, schedule: Q04DX003 (ip), vehicle: saline) 90 % of control; (endpoint: median survival time, dose: 200.0 mg/kg/injection, schedule: Q04DX003 (ip), vehicle: saline) 100 % of control.

Regarding `Cc1ccc(P(=S)(c2ccc(C)c3ccccc23)c2ccc(C)c3ccccc23)c2ccccc12`, the T/C by setting is: (endpoint: mean survival time, dose: 100.0 mg/kg/injection, schedule: Q01DX001 (ip), vehicle: saline) 91 % of control; (endpoint: mean survival time, dose: 200.0 mg/kg/injection, schedule: Q01DX001 (ip), vehicle: saline) 97 % of control; (endpoint: mean survival time, dose: 400.0 mg/kg/injection, schedule: Q01DX001 (ip), vehicle: saline) 91 % of control.

In the case of `COc1cc(CCN2CC3C(C(=O)O)C4C=CC3(C2)O4)ccc1OCc1ccccc1` (configuration not stated), the T/C under setting [13] was 95 % of control, the T/C under setting [14] is 95 % of control and the T/C under setting [15] is 98 % of control.

For `Nc1ncnc(N)c1NC(=O)c1ccc(-c2ccccc2)cc1`, the T/C runs as follows: under setting [12], 92 % of control; under setting [16], 94 % of control; under setting [9], 103 % of control.

For the compound `O=C(Nc1ccccc1)c1ccc(Cl)c([N+](=O)[O-])c1`, the T/C is, setting by setting: (endpoint: mean survival time, dose: 25.0 mg/kg/injection, schedule: Q01DX009 (ip), vehicle: saline with Tween-80) 95 % of control; under setting [12], 86 % of control; under setting [17], 97 % of control; under setting [16], 89 % of control; under setting [5], 100 % of control; under setting [9], 94 % of control and 101 % of control.

In the case of `CC(=O)Oc1cc(N=[N+]=[N-])c(OC(C)=O)cc1C`, the T/C runs as follows: under setting [4], 97 % of control; under setting [6], 93 % of control.

With `O=C1c2ccccc2C(=O)N1CN1C(=O)c2ccccc2C1=O`, the T/C reads like this: under setting [17], 93 % of control; under setting [5], 92 % of control; under setting [7], 93 % of control.

Regarding `CC(=O)NC1CCCCC1`, the T/C was 104 % of control under setting [5] and 102 % of control under setting [7].

Take `Cc1cc(NC(=O)CCc2ccc(N)cc2)ccc1S(=O)(=O)F`: the T/C is, setting by setting: (endpoint: mean survival time, dose: 25.0 mg/kg/injection, schedule: Q01DX009 (ip), vehicle: Klucel (hydroxypropylcellulose) (HPC)) 110 % of control; under setting [1], 98 % of control; under setting [2], 108 % of control; under setting [3], 94 % of control and 106 % of control.
